Values joined by “and” are separate entries in the source; they are usually repeats but may differ in a detail not shown here. Equal entries are not always repeated.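 Test compounds were applied to cells in 96-well plates for 48 hours at 5 doses. Abbreviation: GI50, concentration required for 50% inhibition of growth. TGI marks complete inhibition of growth.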
Columns and labels:
Test in all cases: DTP human tumour cell line panel, 48 h
TK-10 renal = tested on: TK-10 renal
HCC-2998 colon = tested on: HCC-2998 colon
NCI-H226 lung = tested on: NCI-H226 lung
RXF 393 renal = tested on: RXF 393 renal
COLO 205 colon = tested on: COLO 205 colon
K-562 leukemia = tested on: K-562 leukemia
HOP-92 NSCLC = tested on: HOP-92 NSCLC
SR leukemia = tested on: SR leukemia
A549 NSCLC = tested on: A549 NSCLC
A498 renal = tested on: A498 renal
HS 578T breast = tested on: HS 578T breast
ACHN renal = tested on: ACHN renal
786-0 renal = tested on: 786-0 renal
NCI-H460 lung = tested on: NCI-H460 lung
MCF7 breast = tested on: MCF7 breast
SF-268 CNS = tested on: SF-268 CNS
SK-MEL-2 melanoma = tested on: SK-MEL-2 melanoma
SK-MEL-28 melanoma = tested on: SK-MEL-28 melanoma
EKVX NSCLC = tested on: EKVX NSCLC
HT29 colon = tested on: HT29 colon
NCI-H522 lung = tested on: NCI-H522 lung
MOLT-4 leukemia = tested on: MOLT-4 leukemia
PC-3 prostate = tested on: PC-3 prostate
OVCAR-8 ovarian = tested on: OVCAR-8 ovarian
NCI/ADR-RES ovarian = tested on: NCI/ADR-RES ovarian
OVCAR-3 ovarian = tested on: OVCAR-3 ovarian
HCT-15 colon = tested on: HCT-15 colon
IGROV1 ovarian = tested on: IGROV1 ovarian
OVCAR-4 ovarian = tested on: OVCAR-4 ovarian
DLD-1 colon = tested on: DLD-1 colon
SNB-75 CNS = tested on: SNB-75 CNS
UACC-257 melanoma = tested on: UACC-257 melanoma
HOP-62 NSCLC = tested on: HOP-62 NSCLC
SK-OV-3 ovarian = tested on: SK-OV-3 ovarian
UO-31 renal = tested on: UO-31 renal
U251 CNS = tested on: U251 CNS
KM20L2 colon = tested on: KM20L2 colon
HCT-116 colon = tested on: HCT-116 colon
T-47D breast = tested on: T-47D breast
KM12 colon = tested on: KM12 colon
SF-295 CNS = tested on: SF-295 CNS
MDA-N = tested on: MDA-N
CCRF-CEM leukemia = tested on: CCRF-CEM leukemia
MDA-MB-435 = tested on: MDA-MB-435
XF 498 CNS = tested on: XF 498 CNS
LOX IMVI melanoma = tested on: LOX IMVI melanoma
UACC-62 melanoma = tested on: UACC-62 melanoma
RPMI-8226 leukemia = tested on: RPMI-8226 leukemia
OVCAR-5 ovarian = tested on: OVCAR-5 ovarian
NCI-H23 lung = tested on: NCI-H23 lung
HL-60(TB) leukemia = tested on: HL-60(TB) leukemia
HOP-18 NSCLC = tested on: HOP-18 NSCLC
BT-549 breast = tested on: BT-549 breast
SK-MEL-5 melanoma = tested on: SK-MEL-5 melanoma
SNB-19 CNS = tested on: SNB-19 CNS
M19-MEL melanoma = tested on: M19-MEL melanoma
MALME-3M melanoma = tested on: MALME-3M melanoma
SN12C renal = tested on: SN12C renal
SF-539 CNS = tested on: SF-539 CNS
DU-145 prostate = tested on: DU-145 prostate
CAKI-1 renal = tested on: CAKI-1 renal
SNB-78 CNS = tested on: SNB-78 CNS
M14 melanoma = tested on: M14 melanoma
LXFL 529 NSCLC = tested on: LXFL 529 NSCLC
MDA-MB-231 breast = tested on: MDA-MB-231 breast
SW-620 colon = tested on: SW-620 colon

CCc1nc(N)nc(N)c1-c1ccc(Cl)c(N=[N+]=[N-])c1
GI50 (TK-10 renal): 8.78 µM and 29.3 µM | TGI (TK-10 renal): > 100 µM | TGI (HCC-2998 colon): 23 µM and 30.8 µM | TGI (NCI-H226 lung): > 100 µM | GI50 (RXF 393 renal): 2.86 µM and 11.7 µM | TGI (RXF 393 renal): 42.3 µM and 73.6 µM | TGI (COLO 205 colon): 23.3 µM and 26.1 µM | TGI (K-562 leukemia): > 54.8 µM | TGI (HOP-92 NSCLC): > 90.7 µM and 68.2 µM | GI50 (SR leukemia): 1.3 µM and 2.68 µM | TGI (SR leukemia): 19.2 µM and 43.9 µM | GI50 (A549 NSCLC): 0.58 µM and 1.68 µM | TGI (A549 NSCLC): > 100 µM | TGI (A498 renal): 60.7 µM and 72.6 µM | TGI (HS 578T breast): 93.1 µM and > 100 µM | GI50 (ACHN renal): 2.33 µM and 4.75 µM | TGI (ACHN renal): > 100 µM | TGI (786-0 renal): > 77.8 µM and 45.2 µM | GI50 (NCI-H460 lung): 0.463 µM and 1.23 µM | TGI (NCI-H460 lung): > 81.7 µM | TGI (MCF7 breast): > 76.1 µM and 56.7 µM | TGI (SF-268 CNS): > 100 µM | TGI (SK-MEL-2 melanoma): 41.3 µM and 43.7 µM | TGI (SK-MEL-28 melanoma): > 87.7 µM and 60.5 µM | TGI (EKVX NSCLC): > 100 µM and 99.8 µM | GI50 (HT29 colon): 1.32 µM and 3.06 µM | TGI (HT29 colon): > 85.4 µM | TGI (NCI-H522 lung): 42.5 µM and 29.4 µM | GI50 (MOLT-4 leukemia): 2.82 µM and 6.62 µM | TGI (MOLT-4 leukemia): 26.8 µM and 71.1 µM | GI50 (PC-3 prostate): 12.6 µM and 2.06 µM | TGI (PC-3 prostate): > 100 µM | GI50 (OVCAR-8 ovarian): 15.4 µM and 4.79 µM | TGI (OVCAR-8 ovarian): > 100 µM | TGI (NCI/ADR-RES ovarian): 63.9 µM and 99.4 µM | TGI (OVCAR-3 ovarian): 64.6 µM and 80 µM | GI50 (HCT-15 colon): 0.791 µM and 2.06 µM | TGI (HCT-15 colon): > 100 µM | GI50 (IGROV1 ovarian): 2.09 µM and 4.22 µM | TGI (IGROV1 ovarian): > 91.2 µM | TGI (OVCAR-4 ovarian): 97.7 µM and > 100 µM | TGI (DLD-1 colon): > 100 µM | TGI (SNB-75 CNS): > 87.3 µM | GI50 (UACC-257 melanoma): 1.58 µM and 12.9 µM | TGI (UACC-257 melanoma): 40 µM and > 92.7 µM | TGI (HOP-62 NSCLC): > 59.8 µM and 62.8 µM | TGI (SK-OV-3 ovarian): > 100 µM | GI50 (UO-31 renal): 5.8 µM and 14.6 µM | TGI (UO-31 renal): 88 µM and > 100 µM | TGI (U251 CNS): > 100 µM | TGI (KM20L2 colon): > 100 µM | TGI (HCT-116 colon): > 80.6 µM and 65.1 µM | TGI (T-47D breast): > 96.2 µM | TGI (KM12 colon): 73.1 µM and > 100 µM | TGI (SF-295 CNS): > 100 µM and 82 µM | GI50 (MDA-N): 0.812 µM and 5.03 µM | TGI (MDA-N): 53.9 µM and > 84.9 µM | GI50 (CCRF-CEM leukemia): 0.898 µM and 3.89 µM | TGI (CCRF-CEM leukemia): 31.9 µM and > 71.9 µM | TGI (MDA-MB-435): 36.7 µM and > 83.7 µM | TGI (XF 498 CNS): 88.1 µM | TGI (LOX IMVI melanoma): > 100 µM and 67.7 µM | GI50 (UACC-62 melanoma): 0.78 µM and 3.13 µM | TGI (UACC-62 melanoma): 24.8 µM and 26.8 µM | TGI (RPMI-8226 leukemia): 39.2 µM and 52.1 µM | TGI (OVCAR-5 ovarian): > 100 µM | TGI (NCI-H23 lung): > 93.8 µM and 80.9 µM | GI50 (HL-60(TB) leukemia): 0.4 µM and 2.14 µM | TGI (HOP-18 NSCLC): > 100 µM | GI50 (BT-549 breast): 6.14 µM and 15.2 µM | TGI (BT-549 breast): 48.8 µM and 77.7 µM | TGI (SK-MEL-5 melanoma): 19.1 µM and 18.2 µM | GI50 (SNB-19 CNS): 5.09 µM and 19.5 µM | TGI (SNB-19 CNS): > 100 µM | TGI (M19-MEL melanoma): > 100 µM | GI50 (MALME-3M melanoma): 14 µM and 6.3 µM | TGI (MALME-3M melanoma): 30.2 µM and 23.5 µM | TGI (SN12C renal): > 100 µM | TGI (SF-539 CNS): > 39.9 µM and 65.3 µM | TGI (DU-145 prostate): > 100 µM | GI50 (CAKI-1 renal): 19.3 µM and 7.29 µM | TGI (CAKI-1 renal): 99.5 µM and > 96.4 µM | TGI (SNB-78 CNS): > 100 µM | GI50 (M14 melanoma): 0.641 µM and 3.51 µM | TGI (M14 melanoma): 24.1 µM and 49 µM | TGI (LXFL 529 NSCLC): > 100 µM | TGI (MDA-MB-231 breast): > 67.6 µM and 46.5 µM | TGI (SW-620 colon): > 100 µM
